Test results reported in patent US20160296499A1, “Spiroindoline Antiparasitic Derivatives” (ZOETIS SERVICES LLC, priority 2013, published 2016).
Where two headings read alike, the source gives them in different places.

What was measured:
Haemonchus contortus L3 = assay: Haemonchus contortus, Larvae Stage 3 (HcL3) In Vitro Assay; settings: Haemonchus contortus
[1] = target: T1, bovine vesicular acetylcholine transporter (VAChT) (Bos taurus, UniProt E1BK36); assay: Radioligand Binding Assay; settings: for Ki: Bovine binding Ki, CHO-K1 membranes with recombinant bovine VAChT, [3H]Compound X6 0.3 nM
T1 sequence (E1BK36 1-524): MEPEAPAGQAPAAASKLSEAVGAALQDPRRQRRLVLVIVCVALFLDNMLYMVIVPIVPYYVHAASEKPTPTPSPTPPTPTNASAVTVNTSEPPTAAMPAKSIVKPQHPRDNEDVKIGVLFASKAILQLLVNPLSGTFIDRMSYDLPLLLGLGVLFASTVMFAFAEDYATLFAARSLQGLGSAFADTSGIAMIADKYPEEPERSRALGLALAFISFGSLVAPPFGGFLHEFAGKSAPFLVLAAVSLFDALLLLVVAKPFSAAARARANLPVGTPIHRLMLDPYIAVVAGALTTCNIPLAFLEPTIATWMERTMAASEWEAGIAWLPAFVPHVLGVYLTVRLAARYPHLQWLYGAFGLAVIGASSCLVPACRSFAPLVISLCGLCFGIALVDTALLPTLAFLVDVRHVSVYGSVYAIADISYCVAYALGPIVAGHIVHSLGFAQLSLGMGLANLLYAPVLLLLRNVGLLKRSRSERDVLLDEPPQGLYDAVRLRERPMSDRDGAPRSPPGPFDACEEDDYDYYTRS
Experimental: To measure binding affinity, CHO-K1 cells recombinantly expressing the bovine VAChT was generated as a stable cell line and subsequently used to produce membrane preparations.
Radioligand binding assays were conducted in disposable polypropylene 96-well plates. VAChT competition assays were initiated by the addition of bovine recombinant membrane homogenate (50 μg/well) in assay buffer (50 mM Tris-HCl, 120 mM NaCl, 5 mM KCl, 1 mM MgCl, and 2 mM CaCl, pH 7.4) containing [^3H]Compound X6 (0.3 nM) with or without competing ligand. The assay was allowed to equilibrate for 120 minutes at room temperature, before being filtered onto GF/C unifilter plates pre-coated in 0.3% polyethylenimine (Perkin Elmer Life and Analytical Sciences, Boston, Mass.) with a Filtermate 96 harvester (PerkinElmer Life and Analytical Sciences). Filters were washed in ice-cold 50 mM Tris-HCl, pH 7.4 buffer and then counted for radioactivity in a TopCount microplate scintillation counter after addition of 50 μL Microscint 20 (PerkinElmer). Non-specific binding was measured in the presence of 10 μM Compound X6. Apparent dissociation constants (Ki values) from the competition experiments were calculated using an iterative nonlinear regression curve-fitting program (GraphPAD Prism 6.0 Software, San Diego, Calif.) and are reported in Table 2.

[2] = tested on: Dirofilaria immitis microfilariae; assay: Dirofilaria immitis, Microfilariae (DiMF) In Vitro Assay; settings: Dirofilaria immitis
[3] = 96 h, read-out: HcL3 MEC, Minimal Effective Concentration whereby worm motility is inhibited by approximately 70%, 37° C., tested 0.001-100 μM
[4] = 72 h, read-out: Di MF, MEC, decrease in microfilariae motility by visual assessment, curve starting at 100 μM
[5] = 96 hours, 37° C., read-out: HcL3 MEC

Row | Structure (SMILES) | minimal effective concentration (Haemonchus contortus L3; [3]) [µM] | Ki [1] [nM] | minimal effective concentration [2, 4] [µM] | minimal effective concentration (Haemonchus contortus L3; [5]) [µM] | minimal effective concentration ([2]; 72 hours, read-out: Di MF) [µM] | Kd [1] [nM]
1 | O=C(NCc1ccnc(Cl)c1)N1CC2(CCN(C/C=C/c3ccc(OC(F)(F)F)cc3)CC2)c2cc(OC(F)(F)F)ccc21 [Example 180, (E)-N-((2-chloropyridin-4-yl)methyl)-5-(trifluoromethoxy)-1′-(3-(4-(trifluoromethoxy)phenyl)allyl)spiro[indoline-3,4′-piperidine]-1-carboxamide] | 10 | 437 | 10 | – | – | –
2 | O=C(NCc1ccc(F)cc1)N1CC2(CCN(C/C=C/c3ccc(Cl)c(Cl)c3)CC2)c2c1ccc1scnc21 [Example 16, (E)-1-(3-(3,4-dichlorophenyl)allyl)-N-(4-fluorobenzyl)spiro[piperidine-4,8′-thiazolo[4,5-e]indole]-6′(7′H)-carboxamide] | 100 | 7340 | 3.3 | – | – | –
3 | O=C(NCc1ccnc(Cl)c1)N1CC2(CCN(C/C=C/c3ccc(Cl)c(Cl)c3)CC2)c2cc3c(cc21)COC3 [Example 1, (E)-N-((2-chloropyridin-4-yl)methyl)-1′-(3-(3,4-dichlorophenyl)allyl)-5,7-dihydrospiro[furo[3,4-f]indole-3,4′-piperidine]-1(2H)-carboxamide] | 1 | 70 | – | – | – | –
4 | O=C(NCc1ccnc(Cl)c1)N1CC2(CCN(C/C=C/c3ccc(Cl)cc3)CC2)c2cc(SC(F)(F)F)ccc21 [Example 80, (E)-1′-(3-(4-chlorophenyl)allyl)-N-((2-chloropyridin-4-yl)methyl)-5-(trifluoromethylthio)spiro[indoline-3,4′-piperidine]-1-carboxamide] | 100 | 191 | 10 | – | – | –
5 | O=C(NCc1ccnc(F)c1)N1CC2(CCN(C/C=C/c3ccc(Cl)cc3)CC2)c2cc(C3CC3)ccc21 [Example 84, (E)-1′-(3-(4-chlorophenyl)allyl)-5-cyclopropyl-N-((2-fluoropyridin-4-yl)methyl)spiro[indoline-3,4′-piperidine]-1-carboxamide] | – | 680 | – | 100 | 3.3 | –
6 | COc1ccc(/C=C/CN2CCC3(CC2)CN(C(=O)NCc2ccnc(Cl)c2)c2ccc4scnc4c23)cc1 [Example 42, (E)-N-((2-chloropyridin-4-yl)methyl)-1-(3-(4-methoxyphenyl)allyl)spiro[piperidine-4,8′-thiazolo[4,5-e]indole]-6′(7′H)-carboxamide] | > 100 | 55 | 10 | – | – | –
7 | O=C(NCc1ccnc(Cl)c1)N1CC2(CCN(C/C=C/c3ccc(Cl)cc3)CC2)c2c1cccc2C(F)(F)F [Example 149, (E)-1′-(3-(4-chlorophenyl)allyl)-N-((2-chloropyridin-4-yl)methyl)-4-(trifluoromethyl)spiro[indoline-3,4′-piperidine]-1-carboxamide] | 5.1 | 396 | 8.1 | – | – | –
8 | O=C(NCc1ccnc(F)c1)N1CC2(CCN(C/C=C/c3ccc(Cl)c(Cl)c3)CC2)c2cc(Br)ccc21 [Example 104, 5-bromo-1′-[(E)-3-(3,4-dichlorophenyl)allyl]-N-[(2-fluoro-4-pyridyl)methyl]spiro[indoline-3,4′-piperidine]-1-carboxamide] | – | 43.7 | – | 3.3 | 10 | –
9 | Cc1nc2c3c(ccc2s1)N(C(=O)NCc1ccnc(Cl)c1)CC31CCN(C/C=C/c2ccc(F)cc2)CC1 [Example 44, (E)-N-((2-chloropyridin-4-yl)methyl)-1-(3-(4-fluorophenyl)allyl)-2′-methylspiro[piperidine-4,8′-thiazolo[4,5-e]indole]-6′(7′H)-carboxamide] | – | 507 | – | > 100 | 10 | –
10 | O=C(NCc1ccnc(Cl)c1)N1CC2(CCN(C/C=C/c3ccc(C(F)(F)F)cc3)CC2)c2c1ccc(F)c2Cl [Example 164, (E)-4-chloro-N-((2-chloropyridin-4-yl)methyl)-5-fluoro-1′-(3-(4-(trifluoromethyl)phenyl)allyl)spiro[indoline-3,4′-piperidine]-1-carboxamide] | 12.4 | 311 | 5.3 | – | – | –
11 | O=C(NCc1ccnc(Cl)c1)N1CC2(CCN(C/C=C/c3ccc(Cl)c(Cl)c3)CC2)c2c1ccc(Cl)c2Cl [Example 136, (E)-4,5-dichloro-N-((2-chloropyridin-4-yl)methyl)-1′-(3-(3,4-dichlorophenyl)allyl)spiro[indoline-3,4′-piperidine]-1-carboxamide] | – | 160 | – | 3.3 | 100 | –
12 | O=C(NCc1ccnc(Cl)c1)N1CC2(CCN(C/C=C/c3ccc(C(F)(F)F)cc3)CC2)c2ccc(C(F)(F)F)cc21 [Example 138, (E)-N-((2-chloropyridin-4-yl)methyl)-6-(trifluoromethyl)-1′-(3-(4-(trifluoromethyl)phenyl)allyl)spiro[indoline-3,4′-piperidine]-1-carboxamide] | 3.3 | 57.2 | 10 | – | – | –
13 | COc1cc2c(cn1)C1(CCN(C/C=C/c3ccc(Cl)c(Cl)c3)CC1)CN2C(=O)NCc1ccnc(Cl)c1 [Example 65, (E)-N-((2-chloropyridin-4-yl)methyl)-1-(3-(3,4-dichlorophenyl)allyl)-6′-methoxyspiro[piperidine-4,3′-pyrrolo[3,2-c]pyridine]-1′(2′H)-carboxamide] | 3.3 | 49.4 | 1.8 | – | – | –
14 | O=C(NCc1ccnc(Cl)c1)N1CC2(CCN(C/C=C/c3ccc(C(F)(F)F)cc3)CC2)c2cc(Cl)c(F)cc21 [Example 128, (E)-5-chloro-N-((2-chloropyridin-4-yl)methyl)-6-fluoro-1′-(3-(4-(trifluoromethyl)phenyl)allyl)spiro[indoline-3,4′-piperidine]-1-carboxamide] | 1 | 44 | 3.3 | – | – | –
15 | O=C(NCc1ccnc(F)c1)N1CC2(CCN(C/C=C/c3ccc(Cl)cc3)CC2)c2ccc(OC(F)(F)F)cc21 [Example 127, (E)-1′-(3-(4-chlorophenyl)allyl)-N-((2-fluoropyridin-4-yl)methyl)-6-(trifluoromethoxy)spiro[indoline-3,4′-piperidine]-1-carboxamide] | 1 | 78.4 | 10 | – | – | –
16 | O=C(NCc1ccnc(Cl)c1)N1CC2(CCN(C/C=C/c3ccc(C(F)(F)F)cc3)CC2)c2cc(C(F)(F)F)ccc21 [Example 170, (E)-N-((2-chloropyridin-4-yl)methyl)-5-(trifluoromethyl)-1′-(3-(4-(trifluoromethyl)phenyl)allyl)spiro[indoline-3,4′-piperidine]-1-carboxamide] | 57.4 | 716 | 5.7 | – | – | –
17 | O=C(NCc1ccnc(Cl)c1)N1CC2(CCN(C/C=C/c3ccc(Cl)cc3)CC2)c2c1ccc1scnc21 [Example 39, (E)-1-(3-(4-chlorophenyl)allyl)-N-((2-chloropyridin-4-yl)methyl)spiro[piperidine-4,8′-thiazolo[4,5-e]indole]-6′(7′H)-carboxamide] | 6.9 | 90 | 3.3 | – | – | –
18 | O=C(NCc1ccnc(F)c1)N1CC2(CCN(C/C=C/c3ccc(Cl)cc3)CC2)c2c(C3CC3)cccc21 [Example 93, (E)-1′-(3-(4-chlorophenyl)allyl)-4-cyclopropyl-N-((2-fluoropyridin-4-yl)methyl)spiro[indoline-3,4′-piperidine]-1-carboxamide] | 100 | 958 | 5.7 | – | – | –
19 | O=C(NCc1ccnc(F)c1)N1CC2(CCN(C/C=C/c3ccc(Cl)cc3)CC2)c2c1ccc(Cl)c2Cl [Example 62, (E)-4,5-dichloro-1′-(3-(4-chlorophenyl)allyl)-N-((2-fluoropyridin-4-yl)methyl)spiro[indoline-3,4′-piperidine]-1-carboxamide] | 3.3 | 329 | 10 | – | – | –
20 | CN(Cc1ccnc(Cl)c1)C(=O)N1CC2(CCN(C/C=C/c3ccc(Cl)cc3)CC2)c2cc(Cl)ccc21 [Example 188, (E)-5-chloro-1′-(3-(4-chlorophenyl)allyl)-N-((2-chloropyridin-4-yl)methyl)-N-methylspiro[indoline-3,4′-piperidine]-1-carboxamide] | 2 | 172 | – | – | – | –
21 | COc1nc2ccccc2cc1CN1CCC2(CC1)CN(C(=O)NCc1ccnc(Cl)c1)c1ccc(Cl)cc12 [Example 134, 5-chloro-N-((2-chloropyridin-4-yl)methyl)-1′-((2-methoxyquinolin-3-yl)methyl)spiro[indoline-3,4′-piperidine]-1-carboxamide] | – | 34.9 | – | 2 | – | –
22 | COc1ccc(/C=C/CN2CCC3(CC2)CN(C(=O)NCc2ccnc(Cl)c2)c2ccc(F)cc23)cc1 [Compound X6, reference compound] | – | – | – | – | – | 0.6
